Data on 16 molecules can be found in PubChem BioAssay (NCI).

Each structure is given as a SMILES string. Where “and” joins values, the source holds several entries; their conditions need not be identical. Identical values can stand only once.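 Step 1: Grow cells in 96-well plates. Step 2: Expose to compound for 48 hours at 5 concentrations. Step 3: Interpolate endpoints linearly; if unreached, use highest concentration. GI50: concentration for 50% inhibition of growth. TGI denotes the concentration required for complete inhibition of growth.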

Holding throughout (assay): NCI anticancer screen, dose series, 48 h
The test system of test [1] is HT29 colon.
Test [2] has as its system SK-MEL-2 melanoma.
In test [3] the test system is SK-MEL-5 melanoma.
The subject of test [4] is SF-295 CNS.
Test [5] has as its system SNB-19 CNS.
For test [6], the system named is RPMI-8226 leukemia.
The subject of test [7] is UACC-62 melanoma.
The test system of test [8] is OVCAR-5 ovarian.
For test [9], the system named is RXF 393 renal.
For test [10], the system named is HS 578T breast.

Take `O=S1(=O)N2CN3CN(C2)CN1C3`: the TGI in test [1] is 90.6 µM; in test [2] it was 473 µM; in [3], 124 µM; in test [4], 63.3 µM; in [5] it was 856 µM; in test [6] it was 56.6 µM and 124 µM. Also, the TGI in [7] stood at 49.2 µM; in test [8], 362 µM. Moreover, the GI50 in test [6] was 33.7 µM.

In the case of `CCCCC1=CSC(c2ccccc2)=C(c2ccccc2)S1`, the TGI in test [1], in test [3], in test [4], in test [5], in test [6] and in test [7] was above 100 µM in each case.

Turning to `O=[N+]([O-])c1ccc(C2=Nc3ccccc3S(=O)C(c3ccccc3)C2)cc1` (stereo not drawn), the TGI was 42 µM in test [1]; above 100 µM in test [2]; above 100 µM in test [4]; 68 µM in test [5]; 29 µM in [9]; 29.6 µM in test [6]. In addition, the values for the TGI in test [7] and in test [8] were 29.9 µM and 92.8 µM, respectively.

`Nc1nncc2c1c(Br)cn2C1OC(CO)C(O)C1O` (stereo not drawn): the TGI was above 100 µM in [1]; above 60.9 µM in test [2]; above 100 µM in test [3]; above 100 µM in test [4]; above 100 µM in test [5]; above 100 µM in [9]. Moreover, the TGI in test [6], in test [7] and in [8] was above 100 µM in each case.

As for `O=C(O/N=C1\CCCC\C1=C/c1ccccc1)c1ccc([N+](=O)[O-])cc1`, the TGI in [1], in [2], in test [4], in test [9], in [6] and in test [7] was above 100 µM in each case. Moreover, the TGI in [8] was above 100 µM.

For the molecule `Cc1ccc(NC(=O)CCCC(=O)CC(=O)c2ccc(Br)cc2)cc1`, the TGI in test [1], in test [2], in test [3], in test [4], in [5] and in [9] was above 100 µM throughout. For the same molecule, the TGI in [6], in [7] and in test [8] was above 100 µM throughout.

Regarding `O=C1c2ccccc2C(=O)c2cc3c(cc21)CS(=O)C3`, the TGI in test [1], in [2], in [3], in test [4], in [5] and in [9] was above 100 µM throughout. Moreover, the TGI in test [6], in test [7] and in test [8] was above 100 µM throughout.

On to `O=C1C(c2ccccc2)=C(c2ccccc2)C(c2ccc(Cc3ccc(C4=C(c5ccccc5)C(=O)C(c5ccccc5)=C4c4ccccc4)cc3)cc2)=C1c1ccccc1`, for which the TGI in test [1], in [2], in test [3], in test [4], in [5] and in test [9] was above 100 µM each time. Besides, the TGI in [6], in [7] and in [8] was above 100 µM in each case.

Regarding `Cc1ccc(NC(=O)CCc2nc(=S)[nH][nH]2)cc1`, the TGI in test [1], in [2], in test [3], in test [4], in test [5] and in [6] was above 100 µM each time. Further, the TGI in test [7] and in test [8] was above 100 µM throughout.

Take `COc1cccc(/C=C/C(=O)c2ccc3cc(OC)ccc3c2)c1`: the GI50 in [2] is 48.3 µM; in [3], 9.21 µM; in [4], 9.58 µM; in test [5] it was 14 µM; in [6] it was 10.8 µM; in test [7] it was 8.35 µM. Besides, the GI50 in test [8] is 11.1 µM; in [10] it was 14.3 µM. The TGI in test [2] is above 50 µM; in [3], 18.2 µM; in test [4], 22.1 µM; in [5], 47.3 µM; in test [6] it was 34.8 µM; in [7] it was 21.9 µM. In addition, the TGI in test [8] amounted to 25.5 µM; in test [10], 48.3 µM.

Take `N#CCCn1[nH]c(=O)c(Cl)c(Cl)c1=O`: the TGI in test [1] came to 24.2 µM; in [2], 29.6 µM; in [4], 32.1 µM; in [5], 29 µM; in test [9], 32.2 µM; in [6], 37.5 µM. In addition, in test [8], the TGI is 32.8 µM.

On to `CCOC(=O)C(C)(NC(=O)c1ccc(NCc2ccc3nc(NC(=O)c4ccccc4)nc(NC(=O)c4ccccc4)c3c2)cc1)C(=O)OCC`, for which the TGI in test [1] was 39.1 µM; in test [2], 34.7 µM; in [3] it was 22.7 µM; in [4], 19.9 µM; in test [9], 7.92 µM; in test [6] it was above 100 µM. The figures for the TGI in [7] and in [8] were 22.1 µM and above 100 µM, respectively.

For `COC1C2C[C@@H](O)CCC2C(C(=O)OCCl)C[C@H]1O` (stereo partly drawn), the TGI in test [2], in [3], in [5], in test [9], in [6] and in test [7] was above 100 µM throughout.

Consider `Nc1nnc2c(-c3ccccc3)[nH]nc2n1`, for which the TGI in [1], in test [2], in test [4], in test [5], in test [9] and in test [6] was above 100 µM throughout. In test [8], this molecule returned a TGI above 100 µM.

As to `O=C(c1ccc(O)cc1O)C1C(c2ccc(O)cc2)OC(c2ccc(O)cc2)C1C(=O)c1ccc(O)cc1O` (stereo not drawn), the TGI in test [1] is above 100 µM; in test [2], 40.3 µM; in test [3], 29.6 µM; in test [4] it was 67.9 µM; in test [5], 45.2 µM; in test [9] it was 45.5 µM. For the same molecule, the TGI in test [8] amounted to 29.7 µM.

`COc1cccc2c1-c1nc(N)c3c(OC)cccc3c1C2=O`: the TGI in [1], in test [2], in test [3], in [4], in [6] and in [7] was above 100 µM throughout. Further, the TGI in test [8] was above 100 µM; in test [10], 52.3 µM.
